# Experimental data reported in patent publication US20240000927A1, “IMMUNOMODULATORY AGENT” (THE QUEEN'S UNIVERSITY OF BELFAST, priority 2020, published 2024).
# Legend:
# [1] = target: T1, Toll-like receptor (TLR) 4 (Mus musculus, UniProt Q9QUK6); details: reported, Ii et al. 2006; cited from earlier work
# T1 sequence (Q9QUK6 26-835): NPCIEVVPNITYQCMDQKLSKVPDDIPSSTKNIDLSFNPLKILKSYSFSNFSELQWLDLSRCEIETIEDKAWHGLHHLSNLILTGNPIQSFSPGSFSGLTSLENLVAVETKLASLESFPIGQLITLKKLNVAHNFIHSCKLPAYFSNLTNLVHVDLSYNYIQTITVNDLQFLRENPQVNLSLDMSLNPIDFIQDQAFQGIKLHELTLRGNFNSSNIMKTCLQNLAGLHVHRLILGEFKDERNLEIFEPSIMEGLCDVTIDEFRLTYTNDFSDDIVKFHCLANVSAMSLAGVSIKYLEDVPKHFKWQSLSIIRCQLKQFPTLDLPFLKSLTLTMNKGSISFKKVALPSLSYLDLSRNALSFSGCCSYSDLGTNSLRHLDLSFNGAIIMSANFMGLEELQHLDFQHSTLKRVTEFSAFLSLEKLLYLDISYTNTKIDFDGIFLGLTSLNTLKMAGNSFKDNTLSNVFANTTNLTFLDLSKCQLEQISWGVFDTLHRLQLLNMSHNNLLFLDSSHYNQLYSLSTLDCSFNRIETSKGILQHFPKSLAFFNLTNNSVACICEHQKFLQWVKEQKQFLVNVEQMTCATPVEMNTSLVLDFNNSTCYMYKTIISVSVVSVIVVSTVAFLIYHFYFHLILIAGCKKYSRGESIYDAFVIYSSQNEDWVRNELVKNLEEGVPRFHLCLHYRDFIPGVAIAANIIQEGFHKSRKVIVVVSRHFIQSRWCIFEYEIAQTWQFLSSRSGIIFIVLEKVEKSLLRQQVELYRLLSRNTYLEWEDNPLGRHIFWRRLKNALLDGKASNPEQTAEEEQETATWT
# RAW 264.7 macrophages = experiment: Nitrite concentration (Griess reaction) in macrophage culture medium; type: cell-based, murine; details: LPS 1 ng/ml, stated to be the same as extracts at 1 mg/ml
# Source text: Induction of iNOS results in the endogenous production of nitric oxide (NO) by conversion of L-arginine to citrulline (Murad 1998). NO is a key facilitator of inflammatory responses, and is only produced by macrophages activated through the classical pathway (ligation of TLRs) (Mosser 2003). Due to the highly reactive nature of NO, its formation is commonly indirectly measured (i.e. by measuring nitrite (NO2-), one of two primary stable non-volatile breakdown products of NO).
# Nitrite (NO2—) concentration in culture medium was measured using the Griess reaction method, in accordance with the protocol provided by the manufacturer (Life Technologies, Paisley). […] The concentration of NO2- was measured colourimetrically at λ550 nm using a Tecan Safire2 microplate reader.
# A standard solution of 0.1M sodium nitrite (NaNO2) was used to make serial dilutions in the range of 100-1 μM to quantitate NO2- concentrations by means of a standard curve.
# To determine the amount of produced NO2— produced, 50 μl of medium from each well of the 96-well microtitre plate was aspirated post incubation and transferred to a fresh 96-well microtiter plate to which a solution of 50 μl sulfanilic acid 1% (10 mg/ml) in 5% phosphoric acid was added and incubated for 10 minutes at room temperature. […] The concentration of NO2— was measured colourimetrically (λ550 nm) using a Tecan Safire2 microplate reader. […]
# [2] = target: T1, Toll-like receptor (TLR) 4; experiment: TLR 4 inhibition assay with TAK-242 (nitrite production by macrophages); type: cell-based, murine; set-up: endogenous in cells; host or cells: RAW 264.7 murine macrophages; details: TAK-242 10 nM, 18 h, RAW 264.7
# Source text: TAK-242 is a small molecule which is a specific inhibitor of Toll-like receptor (TLR) 4, which inhibits the production of pro-inflammatory mediators by binding to Cys747 in the intracellular domain of TLR4. This prevents interactions between TLR4 and its adaptor molecules Toll/IL-1 receptor domain containing adaptor protein (TIRAP) and Toll/IL-1 receptor domain-containing adaptor protein inducing interferon-β-related adaptor molecule (TRAM). Consequently, LPS-induced signal transduction is inhibited, including downstream signalling transduction that results in the production of pro-inflammatory cytokines (Matsunaga et al. 2011). […] RAW 264.7 were prepared as described in Example 3 and subsequently seeded at a density of 1×10^5 cells/well in two 96-well microtitre plates. S. cordifolia fractions (100 l) SCAF 0 and SCAF 5 (1-0.001 mg/ml) were added in triplicate to one of the plates. The positive control was 1 ng/ml LPS and the negative control was 100 μl DMEM medium. The remaining plate was arranged in an identical manner. However, the fractions SCAF 0 and SCAF 5 and positive (LPS 1 ng/ml) and negative (medium) all contained TAK-242 at a concentration 10 nM. Plates were incubated for 18 h in an incubator at 5% CO2 at 37° C. After incubation, nitrite concentrations were determined using the Griess reagent.
Molecule,IC50 [1],levels of NO2− (RAW 264.7 macrophages),activation of macrophages (nitrite production) in the presence of TAK-242 [2]
CCOC(=O)C1=CCCC[C@H]1S(=O)(=O)Nc1ccc(F)cc1Cl [TAK-242],1.1 to 11 nM,–,–
Lipopolysaccharide [LPS],–,60 to 80 µmol/mL,inactivated
